Laboratory results as given in patent publication US9278914B2, “SARMs and method of use thereof” (UNIVERSITY OF TENNESSEE RESEARCH FOUNDATION, priority 2004, dated 2016).

Key:
[1] = test system: castrated (ORX) male Sprague-Dawley rats; assay: Anabolic and androgenic activity in castrated (ORX) male rats, daily oral gavage for fourteen days; assay type: in vivo, rat; details: for Emax levator ani / Emax prostate / Emax seminal vesicles: nonlinear regression, sigmoid Emax model; for Levator ani muscle weight, maximally stimulated: maximal stimulation, comparator; for Anabolic muscle/prostate ratio: castrated rats
Experimental: Male Sprague-Dawley rats weighing approximately 200 g were purchased from Harlan Bioproducts for Science (Indianapolis, Ind.).
The test article for this study was weighed and dissolved in 10% DMSO (Fisher) diluted with PEG 300 (Acros Organics, N.J.) for preparation of the appropriate dosage concentrations. […] Animals were randomly assigned to one of seven groups consisting of 4 to 5 animals per group. Control groups (intact and ORX) were administered vehicle daily. […] Where appropriate, animals were castrated on day one of the study.
(§1) In addition, ventral prostate, seminal vesicles, and levator ani muscle were removed, individually weighed, normalized to body weight, and expressed as a percentage of intact control. Student's T-test was used to compare individual dose groups to the intact control group. Significance was defined a priori as a P-value<0.05. Ventral prostate and seminal vesicle weights were evaluated as a measure of androgenic activity, whereas levator ani muscle weight was evaluated as a measure of anabolic activity. Blood was collected from the abdominal aorta, centrifuged, and sera were frozen at −80° C. prior to determination of serum hormone levels. Serum luteinizing hormone (LH) and follicle stimulating hormone (FSH) concentrations were determined.
(§2) The test article for this study was weighed and dissolved in 10% DMSO (Fisher) diluted with PEG 300 (Acros Organics, N.J.) for preparation of the appropriate dosage concentrations. […] Animals were randomly assigned to one of seven groups consisting of 4 to 5 animals per group. Control groups (intact and ORX) were administered vehicle daily. Compound of formula S-XXIII was administered via oral gavage at doses of 0.01, 0.03, 0.1, 0.3, 0.75, and 1 mg/day to both intact and ORX groups. Where appropriate, animals were castrated on day one of the study. Treatment with compound of formula S-XXIII began nine days post ORX and was administered daily via oral gavage for fourteen days.
Male Sprague-Dawley rats weighing approximately 200 g were purchased from Harlan Bioproducts for Science (Indianapolis, Ind.). […] Regenerative effects of the compound of formula S-XXIV in chronically (9 days) ORX rats was similarly evaluated.
as §2, with “S-XXIV” for “S-XXIII”
Male Sprague-Dawley rats weighing approximately 200 g were purchased from Harlan Bioproducts for Science (Indianapolis, Ind.). […] Anabolic and androgenic activity of compound of formula S-XXV in intact animals was evaluated, and the dose response in acutely orchidectomized (ORX) animals was evaluated as well.
The compound was weighed and dissolved in 10% DMSO (Fisher) diluted with PEG 300 (Acros Organics, N.J.) for preparation of the appropriate dosage concentrations.

[2] = test system: intact male Sprague-Dawley rats; assay: Anabolic and androgenic activity in intact male rats, daily oral gavage; assay type: in vivo, rat
Experimental: The test article for this study was weighed and dissolved in 10% DMSO (Fisher) diluted with PEG 300 (Acros Organics, N.J.) for preparation of the appropriate dosage concentrations. The animals were housed in groups of 2 to 3 animals per cage. Animals were randomly assigned to one of seven groups consisting of 4 to 5 animals per group. Control groups (intact and ORX) were administered vehicle daily. […] Where appropriate, animals were castrated on day one of the study. Treatment with compound of formula S-II began nine days post ORX and was administered daily via oral gavage for fourteen days.
as §1, with “The animals were sacrificed under anesthesia (ketamine/xyalzine, 87:13 mg/kg) and body weights were recorded. In” for “In”
(§3) The test article for this study was weighed and dissolved in 10% DMSO (Fisher) diluted with PEG 300 (Acros Organics, N.J.) for preparation of the appropriate dosage concentrations. The animals were housed in groups of 2 to 3 animals per cage. Animals were randomly assigned to one of seven groups consisting of 4 to 5 animals per group. Control groups (intact and ORX) were administered vehicle daily. Compound of formula S-XXIII was administered via oral gavage at doses of 0.01, 0.03, 0.1, 0.3, 0.75, and 1 mg/day to both intact and ORX groups. Where appropriate, animals were castrated on day one of the study. Treatment with compound of formula S-XXIII began nine days post ORX and was administered daily via oral gavage for fourteen days.
as §3, with “S-XXIV” for “S-XXIII”, “study.” for “study. Treatment with compound of formula S-XXIII began nine days post ORX and was administered daily via oral gavage for fourteen days.”

## C[C@](O)(COc1ccc(C#N)cc1)C(=O)Nc1ccc(C#N)c(C(F)(F)F)c1 [S-XXV]
[1]; ORX rats
  Dose able to fully restore/maintain levator ani muscle weight: > 0.1 mg/day
  ED50 levator ani: 0.02 ± 0.01 mg/day
  ED50 prostate: 0.09 ± 0.07 mg/day
  ED50 seminal vesicles: 0.17 ± 0.05 mg/day
  Emax levator ani: 131%±2%
  Emax prostate: 83%±25%
  Emax seminal vesicles: 85%±11%
[1]; ORX rats, 0.01 mg/day oral
  Levator ani muscle weight: 59%±6%
  Prostate weight: 8%±2%
  Seminal vesicle weight: 12%±4%
[1]; ORX rats, 0.03 mg/day oral
  Levator ani muscle weight: 85%±9%
  Prostate weight: 20%±5%
  Seminal vesicle weight: 17%±5%
[1]; ORX rats, 0.1 mg/day oral
  Levator ani muscle weight: 112%±10%
  Prostate weight: 51%±19%
  Seminal vesicle weight: 35%±10%
[1]; ORX rats, 0.3 mg/day oral
  Levator ani muscle weight: 122%±16%
  Prostate weight: 56%±9%
  Seminal vesicle weight: 61%±15%
[1]; ORX rats, 0.75 mg/day oral
  Levator ani muscle weight: 127±12 % of intact controls
  Prostate weight: 80%±28%
  Seminal vesicle weight: 70%±14%
[1]; ORX rats, 1 mg/day oral
  Levator ani muscle weight: 129.66±2 % of intact controls
  Prostate weight: 74±12.5 % of intact controls
  Seminal vesicle weight: 80%±6%
[2]; 0.01 mg/day oral
  Levator ani muscle weight: 120%±12%
  Prostate weight: 111%±21%
  Seminal vesicle weight: 94%±9%
[2]; 0.03 mg/day oral
  Levator ani muscle weight: 116%±7%
  Prostate weight: 88%±15%
  Seminal vesicle weight: 77%±11%
[2]; 0.1 mg/day oral
  Levator ani muscle weight: 128%±7%
  Prostate weight: 77%±17%
  Seminal vesicle weight: 80%±9%
[2]; 0.3 mg/day oral
  Levator ani muscle weight: 134%±7%
  Prostate weight: 71%±16%
  Seminal vesicle weight: 73%±12%
[2]; 0.75 mg/day oral
  Levator ani muscle weight: 125%±9%
  Prostate weight: 71%±10%
  Seminal vesicle weight: 77%±10%
[2]; 1 mg/day oral
  Levator ani muscle weight: 146%±17%
  Prostate weight: 87%±13%
  Seminal vesicle weight: 88%±14%

## CC(=O)Nc1ccc(OC[C@](C)(O)C(=O)Nc2ccc([N+](=O)[O-])c(C(F)(F)F)c2)cc1 [S-4, S-3-(4-acetylaminophenoxy)-2-hydroxy-2-methyl-N-(4-nitro-3-trifluoromethylphenyl) propionamide, reference compound]
[1]
  Levator ani muscle weight, maximally stimulated: 101%

## C[C@](O)(COc1ccc(C#N)cc1)C(=O)Nc1ccc(C#N)c(Cl)c1 [S-XXIV, (S)—N-(3-chloro-4-cyanophenyl)-3-(4-cyanophenoxy)-2-hydroxy-2-methylpropanamide]
[1]; ORX rats
  Dose restoring 100% of levator ani muscle weight: 0.1 mg/day
  Prostate weight restored at the dose restoring 100% levator ani: 43±15%
[1]; ORX rats, 0.01 mg/day oral
  Levator ani muscle weight: 52%±8%
  Prostate weight: 17%±6%
  Seminal vesicle weight: 10%±3%
[1]; ORX rats, 0.03 mg/day oral
  Levator ani muscle weight: 67%±9%
  Prostate weight: 31%±3%
  Seminal vesicle weight: 13%±4%
[1]; ORX rats, 0.1 mg/day oral
  Levator ani muscle weight: 98%±10%
  Prostate weight: 43%±15%
  Seminal vesicle weight: 21%±6%
[1]; ORX rats, 0.3 mg/day oral
  Levator ani muscle weight: 103%±12%
  Prostate weight: 54%±17%
  Seminal vesicle weight: 43%±8%
[1]; ORX rats, 0.75 mg/day oral
  Levator ani muscle weight: 105%±12%
  Prostate weight: 58%±10%
  Seminal vesicle weight: 51%±9%
[1]; ORX rats, 1 mg/day oral
  Seminal vesicle weight: 69%±14%
[1]; 0.01 mg/day
  Anabolic muscle/prostate ratio: 3.02
[1]; 0.03 mg/day
  Anabolic muscle/prostate ratio: 2.13
[1]; 0.1 mg/day
  Anabolic muscle/prostate ratio: 2.27
[1]; 0.3 mg/day
  Anabolic muscle/prostate ratio: 1.90
[1]; 0.75 mg/day
  Anabolic muscle/prostate ratio: 1.83
[1]; 1 mg/day
  Anabolic muscle/prostate ratio: 1.51
[2]; 0.01 mg/day oral
  Levator ani muscle weight: 107%±5%
  Prostate weight: 103%±10%
[2]; 0.03 mg/day oral
  Levator ani muscle weight: 103%±7%
  Prostate weight: 99%±10%
[2]; 0.1 mg/day oral
  Levator ani muscle weight: 97%±7%
  Prostate weight: 58%±10%
[2]; 0.3 mg/day oral
  Levator ani muscle weight: 103%±5%
  Prostate weight: 58%±15%
[2]; 0.75 mg/day oral
  Levator ani muscle weight: 118%±7%
  Prostate weight: 65%±20%
[2]; 1 mg/day oral
  Levator ani muscle weight: 118%±7%
  Prostate weight: 77%±23%

## C[C@](O)(COc1ccc(C#N)c(F)c1)C(=O)Nc1ccc(C#N)c(C(F)(F)F)c1 [S-XXIII]
[1]; ORX rats
  Dose able to fully restore/maintain levator ani muscle weight: 0.03 mg/day
  ED50 levator ani: 0.03 ± 0.01 mg/day
  ED50 prostate: 0.21 ± 0.04 mg/day
  ED50 seminal vesicles: 0.2 ± 0.04 mg/day
  Emax levator ani: 147%±10%
  Emax prostate: 147%±10%
  Emax seminal vesicles: 188%±135%
[1]; ORX rats, 0.01 mg/day oral
  Levator ani muscle weight: 71%±4%
  Prostate weight: 24%±4%
  Seminal vesicle weight: 15%±2%
[1]; ORX rats, 0.03 mg/day oral
  Levator ani muscle weight: 101%±15%
  Prostate weight: 37%±9%
  Seminal vesicle weight: 25%±9%
[1]; ORX rats, 0.1 mg/day oral
  Levator ani muscle weight: 125%±20%
  Prostate weight: 50%±11%
  Seminal vesicle weight: 67%±20%
[1]; ORX rats, 0.3 mg/day oral
  Levator ani muscle weight: 126%±14%
  Prostate weight: 88%±16%
  Seminal vesicle weight: 113%±6%
[1]; ORX rats, 0.75 mg/day oral
  Levator ani muscle weight: 151±9 % of intact controls
  Prostate weight: 132%±16%
  Seminal vesicle weight: 155%±16%
[1]; ORX rats, 1 mg/day oral
  Levator ani muscle weight: 143±17 % of intact controls
  Prostate weight: 118±12 % of intact controls
  Seminal vesicle weight: 160%±7%
[2]; 0.01 mg/day oral
  Levator ani muscle weight: 116%±7%
  Prostate weight: 98%±21%
  Seminal vesicle weight: 115%±12%
[2]; 0.03 mg/day oral
  Levator ani muscle weight: 134%±8%
  Prostate weight: 99%±8%
  Seminal vesicle weight: 109%±17%
[2]; 0.1 mg/day oral
  Levator ani muscle weight: 134%±21%
  Prostate weight: 85%±18%
  Seminal vesicle weight: 106%±13%
[2]; 0.3 mg/day oral
  Levator ani muscle weight: 134%±11%
  Prostate weight: 98%±22%
  Seminal vesicle weight: 121%±11%
[2]; 0.75 mg/day oral
  Levator ani muscle weight: 142%±10%
  Prostate weight: 126%±17%
  Seminal vesicle weight: 157%±5%
[2]; 1 mg/day oral
  Levator ani muscle weight: 147%±10%
  Prostate weight: 126%±17%
  Seminal vesicle weight: 136%±3%

## CCC(=O)O[C@H]1CC[C@H]2[C@@H]3CCC4=CC(=O)CC[C@]4(C)[C@H]3CC[C@]12C [Testosterone propionate, reference compound]
[1]
  Levator ani muscle weight, maximally stimulated: 104%
